Results published in article PMC12797170, “Potent Competitive Inhibitors of Ecto-5′-nucleotidase (CD73) based on 6‑(Het)aryl-7-deazapurine Ribonucleoside 5′‑O‑Bisphosphonates” (ACS Pharmacology & Translational Science, 2025).
In brackets after ≈: the same amount, converted by molar mass. Like-named read-outs stand apart in the source and are kept apart here.

Columns and labels:
[1] = Microsomal stability assay, human liver microsomes; type: in vitro ADME; settings: for Mics (hu) comp remaining 60 min: 10 μM; for microsomal CLint at 10 µM: pooled liver microsomes, pH 7.4, read-out: Mics (hu) CLint
[2] = Microsomal stability assay, mouse liver microsomes; type: in vitro ADME; settings: for Mics (m) comp remaining 60 min: 10 μM; for microsomal CLint at 10 µM: pooled liver microsomes, pH 7.4, read-out: Mics (m) CLint
[3] = in vitro; settings: mouse, plasma
[4] = Kinetic solubility in PBS; type: physicochemical; settings: phosphate-buffered saline, pH 7.4, aqueous buffer, kinetic from dmso stock
Outline: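 Echo-MS quantitation with calibration from 0.05 to 4 μM, after 1:99 dilution of filtrate into 50% acetonitrile. Filtrate came from a 100 μM PBS (pH 7.4) solution equilibrated 2 h at room temperature with shaking, in duplicate.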

[5] = in vitro; settings: human, plasma
[6] = In vivo pharmacokinetic study, intravenous; set-up: species or system male CD-1 mice; settings: for half-life / t1/2 (half-life): footnote: t1/2 stability in plasma, text: half-life in mouse PK
Experimental: The pharmacokinetic study was performed by Bienta (Enamine Biology Services) using male CD-1 mice (3 animals, 9 weeks old, body weight ranging from 29.2 to 33.7 g) following intravenous administration. Levels of the test compound were determined by LC-MS/MS in blood plasma over time (seven sampling time points: 5, 15, 30, 60, 120, 240, and 480 min) after a single dose.
Animal treatment and samples preparation were conducted by the Animal Laboratory personnel at Enamine/Bienta.

[7] = system: HeLa S3; assay: In vitro cytotoxic activity; type: cell-based; settings: Homo sapiens
Experimental: (§1) All the compounds were also tested for their in vitro cytotoxic activity on a small panel of four cancer cell lines (CCRF-CEM, HepG2, HeLa S3, HL-60) and nonmalignant human dermal fibroblasts (NHDF).

[8] = system: HepG2; assay: In vitro cytotoxic activity; type: cell-based; settings: Homo sapiens
Experimental: as §1

[9] = system: HL-60; assay: In vitro cytotoxic activity; type: cell-based; settings: Homo sapiens
Experimental: as §1

[10] = system: CCRF-CEM; assay: In vitro cytotoxic activity; type: cell-based; settings: Homo sapiens
Experimental: as §1

[11] = system: nonmalignant human dermal fibroblasts (NHDF); assay: In vitro cytotoxic activity; type: cell-based
Experimental: as §1

[12] = Plasma protein binding, mouse plasma; type: in vitro ADME; settings: mouse, plasma
[13] = molecular target: T1, recombinant human CD73 (hCD73) (Homo sapiens, UniProt P21589); assay: CD73 activity assay on recombinant human CD73; type: biochemical; settings: ΔGexp = RT ln Ki
T1 sequence (P21589 27-574): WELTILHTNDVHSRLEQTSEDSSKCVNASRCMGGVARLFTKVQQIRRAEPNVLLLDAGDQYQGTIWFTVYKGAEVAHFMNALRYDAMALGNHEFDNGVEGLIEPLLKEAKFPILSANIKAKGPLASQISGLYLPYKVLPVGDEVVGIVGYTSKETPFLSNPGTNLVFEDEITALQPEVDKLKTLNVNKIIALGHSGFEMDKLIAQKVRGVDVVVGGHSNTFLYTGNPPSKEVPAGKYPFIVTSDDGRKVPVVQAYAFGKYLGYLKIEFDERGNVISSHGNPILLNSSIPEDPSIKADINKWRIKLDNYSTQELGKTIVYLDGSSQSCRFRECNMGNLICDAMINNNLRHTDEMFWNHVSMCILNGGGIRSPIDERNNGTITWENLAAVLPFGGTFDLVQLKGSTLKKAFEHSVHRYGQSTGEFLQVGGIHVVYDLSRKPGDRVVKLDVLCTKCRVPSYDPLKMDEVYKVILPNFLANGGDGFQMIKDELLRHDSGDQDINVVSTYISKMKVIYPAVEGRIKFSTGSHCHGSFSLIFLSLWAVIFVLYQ

[14] = Plasma protein binding, equilibrium dialysis, human plasma; type: in vitro ADME; settings: undiluted plasma
[15] = male, CD-1, mouse, plasma, iv, 1 mg/kg, intravenous
[16] = mouse, plasma, 1 mg/kg, male CD-1 mice, intravenous, single dose, read-out: Cl (obs), observed clearance
[17] = Tables 2 and 4, mouse plasma, read-out: fup, fraction unbound in mouse plasma
[18] = human plasma protein binding, read-out: PPB (hu) (converted)
[19] = male, CD-1, mouse, plasma, iv, 1 mg/kg, in vivo PK in mice, unit inferred, read-out: clearance
[20] = mouse plasma protein binding, read-out: PPB (m) (converted)
[21] = Tables 1 and 3, human plasma as printed in footnote, read-out: fup, fraction unbound in human plasma
[22] = in vivo PK in mice, unit not given

SMILES	Mics (hu) comp remaining 60 min [1] [%]	microsomal CLint at 10 µM [1] [µL/min/mg]	Mics (m) comp remaining 60 min [2] [%]	microsomal CLint at 10 µM [2] [µL/min/mg]	half-life at 10 µM [3] [h]	solubility at 2 h [4] [µM]	half-life at 10 µM [5] [h]	half-life [6, 15] [h]	clearance [6, 16] [mL/min/kg]	IC50 [7] [µM]	IC50 [8] [µM]	IC50 [9] [µM]	IC50 [10] [µM]	IC50 [11] [µM]	dG_exp, experimental binding free energy [13]	fraction unbound at 4 h, 100 µM [14, 18]	fraction unbound at 4 h, 100 µM [12, 20]	fraction unbound at 4 h, 100 µM [14, 21]	further results
O=P(O)(O)CP(=O)(O)OC[C@H]1O[C@@H](n2ccc3c(-c4cccc5ccccc45)nc(F)nc32)[C@H](O)[C@@H]1O [14D.6]	100	< 1	111	< 1	> 2	89 (≈ 49.3 µg/mL)	> 2	2.3	1.3	> 10	> 10	> 10	> 10	> 10	–14.4 kcal/mol	0.033			fraction unbound at 4 h, 100 µM [12, 17]: 0.42
O=P(O)(O)CP(=O)(O)OC[C@H]1O[C@@H](n2ccc3c(-c4cccc5c4CCCC5)ncnc32)[C@H](O)[C@@H]1O [4A.12]	96	1	100	< 1	> 2	94 (≈ 50.7 µg/mL)	> 2	2.17		> 10	> 10	> 10	> 10	> 10	–15.1 kcal/mol	0.073	0.381	0.38	clearance [6, 19]: 2.1 mL/min/kg
O=P(O)(O)CP(=O)(O)OC[C@H]1O[C@@H](n2ccc3c(-c4cccc5c4CCCC5)nc(F)nc32)[C@H](O)[C@@H]1O [14D.12]	99	< 1	116	< 1	> 2	84 (≈ 46.8 µg/mL)	> 2	2.25	1.4	> 10	> 10	> 10	> 10	> 10	–15.1 kcal/mol	0.023	0.235		fraction unbound at 4 h, 100 µM [12, 17]: 0.23
O=P(O)(O)CP(=O)(O)OC[C@H]1O[C@@H](n2ccc3c(-c4ccsc4)ncnc32)[C@H](O)[C@@H]1O [4A.4]					> 2	90 (≈ 44.2 µg/mL)	> 2	0.0833	12	> 10	> 10	3.4	9.7	> 10	–13.2 kcal/mol	0.125	0.726	0.82	t1/2 (half-life) ([6]; intravenous): 4.5 min; clearance [6, 22]: high clearance
O=P(O)(O)CP(=O)(O)OC[C@H]1O[C@@H](n2ccc3c(-c4cc5ccccc5o4)ncnc32)[C@H](O)[C@@H]1O [4A.8]					> 2	98 (≈ 51.5 µg/mL)	> 2	0.15	11	> 10	> 10	> 10	> 10	> 10	–13.5 kcal/mol	0.019	0.371	0.37	t1/2 (half-life) ([6]; intravenous): 8.5 min; clearance [6, 22]: high clearance
O=P(O)(O)CP(=O)(O)OC[C@H]1O[C@@H](n2ccc3c(-c4cnc5ccccc5c4)ncnc32)[C@H](O)[C@@H]1O [4A.20]	88	2	110	< 1	> 2	> 100	> 2			> 10	> 10	> 10	> 10	> 10	–12.8 kcal/mol	0.054	0.536		
O=P(O)(O)CP(=O)(O)OC[C@H]1O[C@@H](n2ccc3c(-c4ccc5cc(OCc6ccccc6)ccc5c4)nc(Cl)nc32)[C@H](O)[C@@H]1O [7B.31]	147	< 2	134	< 2	> 2	> 100	> 2			> 10	> 10	> 10	> 10	> 10	–14.1 kcal/mol	≤ 0.01	≤ 0.01		
Nc1nc(-c2ccco2)c2ccn([C@@H]3O[C@H](COP(=O)(O)CP(=O)(O)O)[C@@H](O)[C@H]3O)c2n1 [11C.1, [(5-{[2-Amino-4-(furan-2-yl)-7H-pyrrolo[2,3-d]pyrimidin-7-yl]-β-D-ribofuranosyl}oxy)phosphonomethyl]phosphonic Acid]	107	< 1	103	< 1	> 2	> 100	> 2			> 10	> 10	> 10	> 10	> 10	–13.1 kcal/mol	0.224	0.622		
O=P(O)(O)CP(=O)(O)OC[C@H]1O[C@@H](n2ccc3c(-c4cccc5c4oc4ccccc45)ncnc32)[C@H](O)[C@@H]1O [4A.10]					> 2	> 100	> 2	2.38	3.5	> 10	> 10	9.5	> 10	> 10	–12.9 kcal/mol	0.004	0.135	0.13	clearance [6, 22]: moderate clearance
COc1nc(-c2ccc3ccccc3c2)c2ccn([C@@H]3O[C@H](COP(=O)(O)CP(=O)(O)O)[C@@H](O)[C@H]3O)c2n1 [21F.7, [(5-{[2-Methoxy-4-(naphthalen-2-yl)-7H-pyrrolo[2,3-d]pyrimidin-7-yl]-β-D-ribofuranosyl}oxy)phosphonomethyl]phosphonic Acid]	104	< 1		< 1	> 2	79 (≈ 44.7 µg/mL)	> 2			> 10	> 10	> 10	> 10	> 10	–13.4 kcal/mol	≤ 0.01	0.136	0.14	
O=P(O)(O)CP(=O)(O)OC[C@H]1O[C@@H](n2ccc3c(-c4cccc5ccccc45)ncnc32)[C@H](O)[C@@H]1O [4A.6]					> 2	62 (≈ 33.2 µg/mL)	> 2	2.83		> 10	> 10	> 10	> 10	> 10	–14.4 kcal/mol	0.086	0.626	0.63	clearance [6, 19]: 1.4 mL/min/kg
